The subject of this series is rat, Wister strain. The experiment in a line: Acute toxicity in rat, intravenous. Type of series: in vivo. The note with it: body weight 80 - 90 g, 80 µg/kg intravenously in the tail, solution in 0.1 M aqueous sodium acetate containing 0.1 % bovine serum albumin. On the procedure: A solution of each of the following compounds in 0.1 M aqueous sodium acetate containing 0.1 % bovine serum albumin is administered into a rat, Wister strain, body weight 80 - 90 g, 80 µg/kg, intraveneously in the tail.

Positions of bridges follow the written chain, without caps; N, C: chain ends. Residues, ends and D or L forms follow the SMILES beside them.

As for `CC(C)C[C@H](NC(=O)[C@H](CCCNC(=N)N)NC(=O)[C@H](Cc1c[nH]cn1)NC(=O)[C@@H](NC(=O)[C@@H](NC(=O)[C@@H]1CSSC[C@H](NC(=O)[C@H](C)N)C(=O)N[C@@H](CC(N)=O)C(=O)N[C@@H]([C@@H](C)O)C(=O)N[C@@H](C)C(=O)N[C@@H]([C@@H](C)O)C(=O)N1)C(C)C)[C@@H](C)O)C(=O)N[C@@H](C)C(=O)N[C@@H](CC(=O)O)C(=O)N[C@@H](CC(C)C)C(=O)N[C@@H](CC(C)C)C(=O)N[C@@H](CO)C(=O)N[C@@H](CCCNC(=N)N)C(=O)N[C@@H](CO)C(=O)NCC(=O)NCC(=O)N[C@H](C(=O)NCC(=O)N[C@@H](CCCCN)C(=O)N[C@@H](CC(N)=O)C(=O)N[C@@H](CC(N)=O)C(=O)N[C@@H](Cc1ccccc1)C(=O)N[C@H](C(=O)N1CCC[C@H]1C(=O)N[C@H](C(=O)N[C@@H](CC(N)=O)C(=O)N[C@H](C(=O)NCC(=O)N[C@@H](CO)C(=O)N[C@@H](CCCCN)C(=O)N[C@@H](C)C(=O)N[C@@H](Cc1ccccc1)C(N)=O)C(C)C)[C@@H](C)O)C(C)C)C(C)C` [[Asn³, Asp¹⁴, Gly²³] -h -α-CGRP] (H-ACNTATCVTHRLADLLSRSGGVGKNNFVPTNVGSKAF-NH2; disulfide 2-7), the “Acute toxicity (deaths)” value is listed as “No deaths were observed”.
The same measure for `CC(C)C[C@H](NC(=O)[C@H](CCCNC(=N)N)NC(=O)[C@H](Cc1c[nH]cn1)NC(=O)[C@@H](NC(=O)[C@@H](NC(=O)[C@@H]1CSSC[C@H](NC(=O)[C@H](C)N)C(=O)N[C@@H](CC(N)=O)C(=O)N[C@@H]([C@@H](C)O)C(=O)N[C@@H](C)C(=O)N[C@@H]([C@@H](C)O)C(=O)N1)C(C)C)[C@@H](C)O)C(=O)N[C@@H](C)C(=O)N[C@@H](CC(=O)O)C(=O)N[C@@H](Cc1ccccc1)C(=O)N[C@@H](CC(C)C)C(=O)N[C@@H](CO)C(=O)N[C@@H](CCCNC(=N)N)C(=O)N[C@@H](CO)C(=O)NCC(=O)NCC(=O)N[C@H](C(=O)N[C@H](C(=O)N[C@@H](CCCCN)C(=O)N[C@@H](CC(N)=O)C(=O)N[C@@H](CC(N)=O)C(=O)N[C@@H](Cc1ccccc1)C(=O)N[C@H](C(=O)N1CCC[C@H]1C(=O)N[C@H](C(=O)N[C@@H](CC(N)=O)C(=O)N[C@H](C(=O)NCC(=O)N[C@@H](CO)C(=O)N[C@@H](CCCCN)C(=O)N[C@@H](C)C(=O)N[C@@H](Cc1ccccc1)C(N)=O)C(C)C)[C@@H](C)O)C(C)C)C(C)C)C(C)C` [[Asn³, Asp¹⁴, Phe¹⁵] -h -α-CGRP] (H-ACNTATCVTHRLADFLSRSGGVVKNNFVPTNVGSKAF-NH2; disulfide 2-7): “No deaths were observed”; for `CC(C)C[C@H](NC(=O)[C@H](CCCNC(=N)N)NC(=O)[C@H](Cc1c[nH]cn1)NC(=O)[C@@H](NC(=O)[C@@H](NC(=O)[C@@H]1CSSC[C@H](NC(=O)[C@H](C)N)C(=O)N[C@@H](CC(N)=O)C(=O)N[C@@H]([C@@H](C)O)C(=O)N[C@@H](C)C(=O)N[C@@H]([C@@H](C)O)C(=O)N1)C(C)C)[C@@H](C)O)C(=O)N[C@@H](C)C(=O)N[C@@H](CCC(=O)O)C(=O)N[C@@H](CC(C)C)C(=O)N[C@@H](CC(C)C)C(=O)N[C@@H](CO)C(=O)N[C@@H](CCCNC(=N)N)C(=O)N[C@@H](CO)C(=O)NCC(=O)NCC(=O)N[C@H](C(=O)NCC(=O)N[C@@H](CCCCN)C(=O)N[C@@H](CC(N)=O)C(=O)N[C@@H](CC(N)=O)C(=O)N[C@@H](Cc1ccccc1)C(=O)N[C@H](C(=O)N1CCC[C@H]1C(=O)N[C@H](C(=O)N[C@@H](CC(N)=O)C(=O)N[C@H](C(=O)NCC(=O)N[C@@H](CO)C(=O)N[C@@H](CCCCN)C(=O)N[C@@H](C)C(=O)N[C@@H](Cc1ccccc1)C(N)=O)C(C)C)[C@@H](C)O)C(C)C)C(C)C` [[Asn³, Glu¹⁴, Gly²³] -h -α-CGRP] (H-ACNTATCVTHRLAELLSRSGGVGKNNFVPTNVGSKAF-NH2; disulfide 2-7): “No deaths were observed”.
The same measure for `CC(C)C[C@H](NC(=O)[C@H](CCCNC(=N)N)NC(=O)[C@H](Cc1c[nH]cn1)NC(=O)[C@@H](NC(=O)[C@@H](NC(=O)[C@@H]1CSSC[C@H](NC(=O)[C@H](C)N)C(=O)N[C@@H](CC(N)=O)C(=O)N[C@@H]([C@@H](C)O)C(=O)N[C@@H](C)C(=O)N[C@@H]([C@@H](C)O)C(=O)N1)C(C)C)[C@@H](C)O)C(=O)N[C@@H](C)C(=O)N[C@@H](CCC(=O)O)C(=O)N[C@@H](Cc1ccccc1)C(=O)N[C@@H](CC(C)C)C(=O)N[C@@H](CO)C(=O)N[C@@H](CCCNC(=N)N)C(=O)N[C@@H](CO)C(=O)NCC(=O)NCC(=O)N[C@H](C(=O)N[C@H](C(=O)N[C@@H](CCCCN)C(=O)N[C@@H](CC(N)=O)C(=O)N[C@@H](CC(N)=O)C(=O)N[C@@H](Cc1ccccc1)C(=O)N[C@H](C(=O)N1CCC[C@H]1C(=O)N[C@H](C(=O)N[C@@H](CC(N)=O)C(=O)N[C@H](C(=O)NCC(=O)N[C@@H](CO)C(=O)N[C@@H](CCCCN)C(=O)N[C@@H](C)C(=O)N[C@@H](Cc1ccccc1)C(N)=O)C(C)C)[C@@H](C)O)C(C)C)C(C)C)C(C)C` [[Asn³, Glu¹⁴, Phe¹⁵] -h -α-CGRP] (H-ACNTATCVTHRLAEFLSRSGGVVKNNFVPTNVGSKAF-NH2; disulfide 2-7): “No deaths were observed”; for `CC(C)C[C@H](NC(=O)[C@H](CCCNC(=N)N)NC(=O)[C@H](Cc1c[nH]cn1)NC(=O)[C@@H](NC(=O)[C@@H](NC(=O)[C@@H]1CSSC[C@H](NC(=O)[C@H](C)N)C(=O)N[C@@H](CC(N)=O)C(=O)N[C@@H]([C@@H](C)O)C(=O)N[C@@H](C)C(=O)N[C@@H]([C@@H](C)O)C(=O)N1)C(C)C)[C@@H](C)O)C(=O)N[C@@H](C)C(=O)NCC(=O)N[C@@H](Cc1ccccc1)C(=O)N[C@@H](CC(C)C)C(=O)N[C@@H](CO)C(=O)N[C@@H](CCCNC(=N)N)C(=O)N[C@@H](CO)C(=O)NCC(=O)NCC(=O)N[C@H](C(=O)NCC(=O)N[C@@H](CCCCN)C(=O)N[C@@H](CC(N)=O)C(=O)N[C@@H](CC(N)=O)C(=O)N[C@@H](Cc1ccccc1)C(=O)N[C@H](C(=O)N1CCC[C@H]1C(=O)N[C@H](C(=O)N[C@@H](CC(N)=O)C(=O)N[C@H](C(=O)NCC(=O)N[C@@H](CO)C(=O)N[C@@H](CCCCN)C(=O)N[C@@H](C)C(=O)N[C@@H](Cc1ccccc1)C(N)=O)C(C)C)[C@@H](C)O)C(C)C)C(C)C` [[Asn³, Phe¹⁵, Gly²³] -h -α-CGRP] (H-ACNTATCVTHRLAGFLSRSGGVGKNNFVPTNVGSKAF-NH2; disulfide 2-7): “No deaths were observed”.
The same measure for `CC(C)C[C@H](NC(=O)[C@H](CCCNC(=N)N)NC(=O)[C@H](Cc1c[nH]cn1)NC(=O)[C@@H](NC(=O)[C@@H](NC(=O)[C@@H]1CSSC[C@H](NC(=O)[C@H](C)N)C(=O)N[C@@H](CC(=O)O)C(=O)N[C@@H]([C@@H](C)O)C(=O)N[C@@H](C)C(=O)N[C@@H]([C@@H](C)O)C(=O)N1)C(C)C)[C@@H](C)O)C(=O)N[C@@H](C)C(=O)N[C@@H](CC(=O)O)C(=O)N[C@@H](CC(C)C)C(=O)N[C@@H](CC(C)C)C(=O)N[C@@H](CO)C(=O)N[C@@H](CCCNC(=N)N)C(=O)N[C@@H](CO)C(=O)NCC(=O)NCC(=O)N[C@H](C(=O)N[C@H](C(=O)N[C@@H](CCCCN)C(=O)N[C@@H](CC(N)=O)C(=O)N[C@@H](CC(N)=O)C(=O)N[C@@H](Cc1ccccc1)C(=O)N[C@H](C(=O)N1CCC[C@H]1C(=O)N[C@H](C(=O)N[C@@H](CC(N)=O)C(=O)N[C@H](C(=O)NCC(=O)N[C@@H](CO)C(=O)N[C@@H](CCCCN)C(=O)N[C@@H](C)C(=O)N[C@@H](Cc1ccccc1)C(N)=O)C(C)C)[C@@H](C)O)C(C)C)C(C)C)C(C)C` [[Asp¹⁴ ] -h -α-CGRP] (H-ACDTATCVTHRLADLLSRSGGVVKNNFVPTNVGSKAF-NH2; disulfide 2-7): “No deaths were observed”.
As to `CC(C)C[C@H](NC(=O)[C@H](CCCNC(=N)N)NC(=O)[C@H](Cc1c[nH]cn1)NC(=O)[C@@H](NC(=O)[C@@H](NC(=O)[C@@H]1CSSC[C@H](NC(=O)[C@H](C)N)C(=O)N[C@@H](CC(=O)O)C(=O)N[C@@H]([C@@H](C)O)C(=O)N[C@@H](C)C(=O)N[C@@H]([C@@H](C)O)C(=O)N1)C(C)C)[C@@H](C)O)C(=O)N[C@@H](C)C(=O)N[C@@H](CCC(=O)O)C(=O)N[C@@H](CC(C)C)C(=O)N[C@@H](CC(C)C)C(=O)N[C@@H](CO)C(=O)N[C@@H](CCCNC(=N)N)C(=O)N[C@@H](CO)C(=O)NCC(=O)NCC(=O)N[C@H](C(=O)N[C@H](C(=O)N[C@@H](CCCCN)C(=O)N[C@@H](CC(N)=O)C(=O)N[C@@H](CC(N)=O)C(=O)N[C@@H](Cc1ccccc1)C(=O)N[C@H](C(=O)N1CCC[C@H]1C(=O)N[C@H](C(=O)N[C@@H](CC(N)=O)C(=O)N[C@H](C(=O)NCC(=O)N[C@@H](CO)C(=O)N[C@@H](CCCCN)C(=O)N[C@@H](C)C(=O)N[C@@H](Cc1ccccc1)C(N)=O)C(C)C)[C@@H](C)O)C(C)C)C(C)C)C(C)C` [[Glu¹⁴ ] -h -α-CGRP] (H-ACDTATCVTHRLAELLSRSGGVVKNNFVPTNVGSKAF-NH2; disulfide 2-7), the “Acute toxicity (deaths)” value is on record as “No deaths were observed”.
As to `CC(C)C[C@H](NC(=O)CNC(=O)[C@H](C)NC(=O)[C@H](CC(C)C)NC(=O)[C@H](CCCNC(=N)N)NC(=O)[C@H](Cc1cnc[nH]1)NC(=O)[C@@H](NC(=O)[C@@H](NC(=O)[C@@H]1CSSC[C@H](NC(=O)[C@H](C)N)C(=O)N[C@@H](CC(=O)O)C(=O)N[C@@H]([C@@H](C)O)C(=O)N[C@@H](C)C(=O)N[C@@H]([C@@H](C)O)C(=O)N1)C(C)C)[C@@H](C)O)C(=O)N[C@@H](CC(C)C)C(=O)N[C@@H](CO)C(=O)N[C@@H](CCCNC(=N)N)C(=O)N[C@@H](CO)C(=O)NCC(=O)NCC(=O)N[C@H](C(=O)N[C@H](C(=O)N[C@@H](CCCCN)C(=O)N[C@@H](CC(N)=O)C(=O)N[C@@H](CC(N)=O)C(=O)N[C@@H](Cc1ccccc1)C(=O)N[C@H](C(=O)N1CCC[C@H]1C(=O)N[C@H](C(=O)N[C@@H](CC(N)=O)C(=O)N[C@H](C(=O)NCC(=O)N[C@@H](CO)C(=O)N[C@@H](CCCCN)C(=O)N[C@@H](C)C(=O)N[C@@H](Cc1ccccc1)C(N)=O)C(C)C)[C@@H](C)O)C(C)C)C(C)C)C(C)C` [h - α - CGRP], the “Acute toxicity (deaths)” value is listed as “No deaths were observed”.
As for c - CGRP, the entry is “No deaths were observed”; as for desalanyl- [Asp^3, Asu^2,⁷)-c-CGRP, “No deaths were observed”.
As for desalanyl- [Asu^2,7] -h - α-CGRP, the entry is “No deaths were observed”; as for desalanyl- [Asu^2,7] -h -β-CGRP, “No deaths were observed”.

(Values after EP0385712B1, “A peptide for use in the manufacture of a composition for prevention or treatment of a condition susceptible to treatment with a platelet aggregation inhibition agent” (ASAHI KASEI KOGYO KABUSHIKI KAISHA, priority 1989, dated 1994).)
